Reference: US20250302799A1, “PHARMACEUTICAL COMPOSITION CONTAINING FRAXETIN FOR PREVENTION OR TREATMENT OF ENDOMETRIOSIS” (Research & Business Foundation Sungkyunkwan University, priority 2024, published 2025)

Assays:
endometriotic lesions [1] = assay: Endometriosis animal model, lesion size and histology; format: in vivo, C57/BL6 mice; settings: fraxetin 30mg/kg orally for four weeks
Procedure: (§1) Seven-week-old female C57/BL6 mice were purchased from DBL (Eumseong, South Korea). After a 7-day acclimation period, they were subcutaneously injected with 2 mg/50 μL of progesterone two days before surgery. After anesthetizing the mice, the […] was excised and autografted onto the peritoneum to induce endometriosis. After culturing for two weeks, the mice were randomly assigned to groups and administered either a vehicle as the control, fraxetin at 30mg/kg, or dienogest at 1 mg/kg orally for four weeks.
For histological analysis, tissues were lesion prepared as paraffin blocks and sectioned onto slides. Hematoxylin-eosin (H&E) staining was performed using Mayer's hemalum solution and a Prussian Blue staining kit (Cat. Ab150674, Abcam) histological analysis and for immunohistochemistry. Immunohistochemistry was conducted using an avidin-biotin complex kit (Cat. PK-4001, Vector Laboratories).

End1/E6E7 cells [2] = assay: Cell cycle analysis by flow cytometry (PI); format: cell-based, human; settings: End1/E6E7, 48 hours
Procedure: (§2) The inventors performed flow cytometry to examine the changes in the cell cycle of endometrial cells induced by fraxetin.
(§3) In brief, 5×10^3 cells of VK2/E6E7, End1/E6E7, and T-HESC were treated with fraxetin in a dose-dependent manner (0 μM, 5 μM, 10 μM, 20 μM, 50 μM, 100 μM) and incubated for 48 hours at 37° C. in a 5% CO2 incubator.
(§4) Afterward, cells were detached from the culture plates using trypsin, washed with 0.1% BSA/PBS, and fixed in 70% ethanol for 24 hours. The cells were then washed with 0.1% BSA/PBS, treated with RNase A (Sigma), and stained with PI. The stained solution transferred to FACS tubes, and fluorescence intensity and cell cycle were analyzed using a flow cytometer.

VK2/E6E7 cells [3] = assay: Cell cycle analysis by flow cytometry (PI); format: cell-based, human; settings: VK2/E6E7, 48 hours
Procedure: as §2, §3, §4

End1/E6E7 cells [4] = assay: Icam1/Vcam1 expression in endometriosis cell line; format: cell-based, human
Procedure: (§5) The endometrial cell lines VK2/E6E7, End1/E6E7, and normal endometrial stromal cell line T-HESC were purchased from ATCC. The cells were cultured in keratinocyte serum-free medium or DMEM/F12 1:1 medium containing 10% FBS for monolayer culture. Endometrial cell lines (VK2/E6E7,End1/E6E7) and normal cells were cultured at 37° C. in a 5% CO2 incubator.

VK2/E6E7 cells [5] = assay: Icam1/Vcam1 expression in endometriosis cell line; format: cell-based, human
Procedure: as §5

End1/E6E7 cells [6] = assay: Intracellular calcium concentration (fluo-4 staining); format: cell-based, human
Procedure: (§6) To examine intracellular or mitochondrial calcium concentration changes in endometrial cells induced by fraxetin, the inventors conducted experiments using 3 μM fluo-4 acetoxymethyl ester (AM) (Invitrogen) and 3 μM rhod-2.
(§7) First, cells were cultured in 6-well plates, treated with fraxetin in a dose-dependent manner (0 μM, 5 μM, 10 μM, 20 μM, 50 μM, 100 μM), and incubated at 37° C. in a 5% CO2 incubator for 48 hours. The cells were then detached using trypsin, washed with PBS, and stained with 3 μM fluo-4 or 3 μM rhod-2 for 20 minutes at 37° C. in a 5% CO2 incubator. After staining, the cells were washed with PBS, transferred to FACS tubes, and analyzed by flow cytometry to measure intracellular or mitochondrial calcium concentrations.

VK2/E6E7 cells [7] = assay: as above; format: cell-based, human
Procedure: as §6, §7

End1/E6E7 cells [8] = assay: ROS generation by DCFH-DA flow cytometry; format: cell-based, human
Procedure: (§8) To assess the inhibitory effect of fraxetin on ROS generation in endometrial cells, the inventors used flow cytometry to measure ROS levels. In brief, endometriosis cells were stained with DCFH-DA (final concentration 10 μM) for 30 minutes and treated with 50 μM fraxetin in experimental groups, with or without 2 mM N-acetylcysteine (NAC; Cat No. A0737, Sigma), in a 37° C. incubator. Afterward, the cells were washed with PBS, and ROS levels were detected by measuring fluorescence DCF via flow cytometry.

VK2/E6E7 cells [9] = assay: ROS generation by DCFH-DA flow cytometry; format: cell-based, human
Procedure: as §8

endometriotic lesions [10] = assay: Gene expression in endometriotic lesion tissue of the animal model; format: in vivo, C57/BL6 mice
Procedure: as §1

VK2/E6E7 cells [11] = assay: Mitochondrial membrane potential by JC-1 staining; format: cell-based, human; settings: VK2/E6E7
End1/E6E7 cells [12] = assay: Wound healing / cell migration assay; format: cell-based, human; settings: End1/E6E7, 50 μM fraxetin; vehicle 88%
Procedure: (§9) To measure the effects of fraxetin on endometrial cell migration, the inventors used a migration culture dish insert from Ibidi to analyze cell mobility.
(§10) In brief, endometrial cells (VK2/E6E7, End1/E6E7) were placed in compartmentalized wells within the culture dish and cultured until they filled the compartments. Afterward, the insert separating the compartments was removed, creating a 500 μm gap for cell migration. The cells were then cultured with medium containing fraxetin at 37° C. in a 5% CO2 incubator. Cell movement across the gap was observed using an optical microscope (DM3000, Leica) and photographed, and the migration distance was calculated and quantified.

VK2/E6E7 cells [13] = assay: Wound healing / cell migration assay; format: cell-based, human; settings: vehicle 90%
Procedure: as §9, §10

endometrial cells = assay: tiRNA expression by real-time PCR (cell line not stated); format: cell-based, human; settings: following fraxetin treatment
Procedure: To confirm the expression of tiRNA (tRNA-derived stress-induced RNAs) associated with the development of endometriosis, the inventors conducted real-time PCR.
First, information on candidate tiRNA sequences and mature tRNA sources was obtained from MINTbase (https://cm.jefferson.edu/MINTbase/). miRNA CDNA synthesis was performed using a cDNA kit (Agilent Technologies) to confirm tiRNA expression, with U6 snRNA used for normalization. For transfection of the tiRNA^His GTG inhibitor (5′-AACCGAGAGUACUAACCACUAUACGAUCACCGC-3′) (40 nM), Lipofectamine 2000 was used in Opti-MEM.

COc1cc2ccc(=O)oc2c(O)c1O [fraxetin]
immune cell infiltration (tissue after iron staining) (endometriotic lesions [1]): increase | size of endometriotic lesions (endometriotic lesions [1]; vs vehicle control): significantly reduced | number of cells in the Sub-G1 phase (End1/E6E7 cells [2]): increase | number of cells in the Sub-G1 phase (VK2/E6E7 cells [3]): increase | expression levels of Icam1 and Vcam1 (End1/E6E7 cells [4]): significant decrease | expression levels of Icam1 and Vcam1 (VK2/E6E7 cells [5]): significant decrease | calcium levels (upregulated to) (End1/E6E7 cells [6]): 180% | calcium levels (upregulated to) (VK2/E6E7 cells [7]): 300% | relative ROS generation (End1/E6E7 cells [8]; End1/E6E7, Example 7 comparison fraxetin vs dienogest): over 150% | ROS generation compared to control (End1/E6E7 cells [8]; End1/E6E7, fraxetin-treated): up to 1.5 fold | relative ROS generation (VK2/E6E7 cells [9]; VK2/E6E7, Example 7 comparison fraxetin vs dienogest): > 200% | ROS generation compared to control (VK2/E6E7 cells [9]; VK2/E6E7, fraxetin-treated): up to 1.5 fold | expression of adhesion-related genes (Icam1, Vcam1, Itga1, Itga5) (endometriotic lesions [10]; endometriotic lesions): inhibited | expression of apoptosis-related genes (Bak1, Bax, Bad, Casp1) (endometriotic lesions [10]; endometriotic lesions): increased | expression of endoplasmic reticulum stress-related genes (Hspa5, Elf2s1, Ern1) (endometriotic lesions [10]; endometriotic lesions): increased | expression of mitochondrial function-related genes (Atp5me, Atp5pb, Atp5po) (endometriotic lesions [10]; endometriotic lesions): decreased | mRNA expression of inflammation-related genes (Il4, Cxcl15, Il8, Il21, Tnf, Il4ra, Cxcr1, Cxcr2, Il18r, Il21r, Tnfrsfa) (endometriotic lesions [10]; endometriotic lesions, compared to control group): significantly reduced | expression of Icam1 and Vcam1 within the lesion tissue (endometriotic lesions [10]; fraxetin-treated group compared to control group): reduced | relative membrane potential loss rate increase (VK2/E6E7 cells [11]): 2.6 fold | wound closure (End1/E6E7 cells [12]): 7% | wound closure (VK2/E6E7 cells [13]): 18% | mRNA expression of tiRNA^GlyCCC, tiRNA^ValCAC, tiRNA^AspGTC and tiRNA^GluCTC (endometrial cells): minimal change | tiRNA^HisGTG expression (endometrial cells): increased by more than twofold
